Consider 60 molecules from the METLIN SMRT retention time set (Domingo-Almenara et al. 2019).

Molecules are shown by their SMILES.

The data set can be described thus: gradient 5% acetonitrile 3 min, to 50% in 2 min, to 85% in 15 min, held 3 min, 100 µL/min. The settings on record: column: Zorbax Extend-C18 2.1 x 50 mm; eluents: water / acetonitrile, 0.1% formic acid. Put shortly: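 Retention times of pure standards were taken from adduct peaks that were selected by computer and manually inspected. Over 3 months, mixtures of ~100 molecules were run by HPLC–quadrupole time-of-flight mass spectrometry in positive and negative ionization mode. The Zorbax Extend-C18 column (2.1 × 50 mm, 1.8 μm) ran at 100 μL/min in water and acetonitrile, each containing 0.1% formic acid, with 40 μL dead volume and 900 μL dwell volume.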
`Cc1ccc(NC(=O)N2CCCC(C)(C(=O)NCc3ccccc3)C2)c(C)c1` (stereo not given) displayed an RP-LC retention time of 924 s.

With `CC(C)C(=O)N1CCc2cc(C(=O)N3CCCC3)ccc21`, the RP-LC retention time stood at 720 s.

`COc1cc2nc(C(=O)N3CCCCC3)cc(Nc3ccc(Br)c(C)c3)c2cc1OC` displayed an RP-LC retention time of 779 s.

Regarding `CC(=O)Nc1nsc(N2CCC(C(=O)N3CCN(c4ccc(F)cc4)CC3)CC2)n1`, the RP-LC retention time amounted to 680 s.

In turn, `COc1ccc2[nH]c(C)c(CCNS(=O)(=O)c3cc(OC)c(C)cc3OC)c2c1` had an RP-LC retention time of 870 s.

`O=C(Cn1c(=O)oc2ccccc21)Nc1nc(-c2ccc(Cl)cc2)cs1`: the RP-LC retention time was determined as 1020 s.

Regarding `CCc1ccc(NS(=O)(=O)c2cc(-c3nc(C)cs3)cs2)cc1`, the RP-LC retention time worked out at 1030 s.

Consider `Cc1noc(-c2nc(-c3cccc(Cl)c3)no2)n1`, for which the RP-LC retention time came to 1070 s.

In the case of `O=C(c1ccccc1F)N1CCC(n2nc(-c3ccsc3)ccc2=O)CC1`, the RP-LC retention time came out at 783 s.

As for `C=CCNC(=O)C1CCN(C(=O)Nc2ccc(NC(=O)Nc3ccccc3)cc2)CC1`, the RP-LC retention time was found to be 679 s.

In turn, `O=C(CC1CCN(C(=O)NCc2ccccc2)CC1)NCc1cccc(F)c1` showed an RP-LC retention time of 741 s.

`Cc1ccc(NC(=O)Cn2nc(N3CCC(C)CC3)c3ccccc3c2=O)cc1`: the RP-LC retention time is 1140 s.

Molecule `Cc1noc(-c2ccnc(SCC(=O)Nc3cccc(C(F)(F)F)c3)c2)n1` registered an RP-LC retention time of 933 s.

Turning to `CCOc1ccccc1CNC(=O)C1CCN(c2nc(CC)nc3csc(C)c23)CC1`, the RP-LC retention time stood at 1030 s.

Molecule `COC(=O)c1cc(C)nc2c1c(=O)n(Cc1cc(C)ccc1C)c(=O)n2Cc1ccco1` gave an RP-LC retention time of 1170 s.

`O=C(NCc1nc(-c2ccccc2)no1)c1cc(C2CC2)on1` registered an RP-LC retention time of 822 s.

Molecule `CCN1CCn2c(nc3cc(C(=O)NCc4ccc(Br)cc4)ccc32)C1=O` yielded an RP-LC retention time of 704 s.

Consider `Cc1ccc(F)cc1NC(=O)c1cc2n(n1)CCCC2`, for which the RP-LC retention time was 949 s.

The molecule `CCCn1ccc2sc(C)c(C(=O)NCCN3CCCCCC3)c2c1=O` displayed an RP-LC retention time of 657 s.

`COc1ccc(CNC(=O)N2CCC3(C2)C(=O)N(C)c2ccccc23)cc1` (stereo not given) returned an RP-LC retention time of 734 s.

The molecule `O=C(Cc1cccs1)N1CCCC(c2ccnc(-c3ccc(F)cc3)n2)C1` (stereo not given) displayed an RP-LC retention time of 1050 s.

Turning to `CN1C(=O)c2cccnc2Sc2cc(C(=O)NC3CCCC3)ccc21`, the RP-LC retention time is 726 s.

The molecule `Cc1ccc(Nc2cc(N3CCC(C(=O)N4CCCC4)CC3)ncn2)cc1` had an RP-LC retention time of 632 s.

Consider `CCC(C)n1c(=O)c2ccccc2n(Cc2nc(-c3ccc(OC)c(OC)c3)no2)c1=O` (stereo not given), for which the RP-LC retention time worked out at 1060 s.

In turn, `CCOC(=O)c1noc2nc(C)nc(NC(C)c3ccccc3)c12` (stereo not given) gave an RP-LC retention time of 1140 s.

Take `Cc1cccc(CNC(=O)C2CCN(S(=O)(=O)c3ccc4c(c3)NC(=O)CO4)CC2)c1`: the RP-LC retention time was 794 s.

`COc1ccc(-c2nc(N3CCC4(CC3)OCCO4)c3ccccc3n2)cc1` had an RP-LC retention time of 726 s.

In turn, `CN1C(=O)C(c2c(-c3ccc(Br)cc3)[nH]c3[nH]c(=O)[nH]c(=O)c23)c2ccccc21` (stereo not given) had an RP-LC retention time of 721 s.

In the case of `COc1ccc(C2(c3nc(-c4ccc5oc(C)nc5c4)no3)CC2)cc1`, the RP-LC retention time was found to be 651 s.

Take `O=C(c1ccc(-c2ccsc2)nc1)N1CCN(c2ccccc2)CC1`: the RP-LC retention time came to 909 s.

For `CCOc1ccccc1C(=O)Nc1c(-c2ccccc2)nc2ccccn12`, the RP-LC retention time was found to be 685 s.

Molecule `O=C(NCc1nc(-c2ccc(Cl)cc2)no1)NC1CCCCC1` returned an RP-LC retention time of 916 s.

Turning to `COCCOCc1nc(C2CCCN2S(=O)(=O)c2cc(F)ccc2F)no1` (stereo not given), the RP-LC retention time worked out at 830 s.

`CCCNC(=O)C1CCN(S(=O)(=O)c2cc(C(=O)N(C)C)cs2)CC1` registered an RP-LC retention time of 658 s.

The molecule `Cc1[nH]nc(-c2c(C)sc(C)c2S(=O)(=O)NCc2ccc(Br)cc2)c1C` yielded an RP-LC retention time of 1130 s.

`Cc1ccccc1-n1c(=O)c2sccc2n(Cc2nc(-c3ccccc3)no2)c1=O` yielded an RP-LC retention time of 1000 s.

As to `CCc1nc2cc(-c3noc(-c4cccc(C#N)c4)n3)ccc2o1`, the RP-LC retention time came out at 1070 s.

`Cc1ccc(Cl)cc1NC(=O)Cn1cccc1-c1nnc(C2CC2)o1` displayed an RP-LC retention time of 956 s.

As to `CCC(C)n1c(=O)c2ccccc2n(Cc2nc(-c3ccc(Br)cc3)no2)c1=O` (stereo not given), the RP-LC retention time worked out at 1320 s.

In turn, `CCN1C(=O)c2cc(S(=O)(=O)NCc3cccc(C)c3)ccc2Oc2cccnc21` had an RP-LC retention time of 1030 s.

With `O=C(c1nc(-c2ccnc(N3CCCCC3)c2)no1)N1CCC2(CC1)OCCO2`, the RP-LC retention time was determined as 673 s.

Regarding `O=C(c1cn(-c2ccc(-c3nc(C4CC4)no3)cn2)cn1)N1CCCC1`, the RP-LC retention time came to 676 s.

Take `Cn1nc2n(c1=O)CCN(C(=O)c1ccn[nH]1)CC2`: the RP-LC retention time was determined as 552 s.

Molecule `COc1ccc2c(c1)CC(NC(=O)NCc1ccc(OC)cc1OC)CO2` (stereo not given) yielded an RP-LC retention time of 780 s.

As to `COCC(=O)NCC12CCCC=C1NC(=O)CC2` (stereo not given), the RP-LC retention time worked out at 605 s.

On to `CCC(C)NC(=O)c1nc(Nc2cccc(C)c2)c2ccccc2n1` (stereo not given), for which the RP-LC retention time was determined as 819 s.

Molecule `COc1cc(NC(=O)NCCc2cn(C)c3ncccc23)cc(OC)c1` yielded an RP-LC retention time of 657 s.

`CCOc1ccc(-c2nnc(SCC(N)=O)o2)cc1` came in with an RP-LC retention time of 682 s.

`CCC(C)NC(=O)Cn1c2ccccc2c2ncn(Cc3nc(-c4ccccc4)no3)c(=O)c21` (stereo not given) gave an RP-LC retention time of 882 s.

`CCN1CCN(Cc2ccc(C(=O)NCc3ccc(C(F)(F)F)cc3)cc2)C(=O)C1=O` displayed an RP-LC retention time of 744 s.

`CC(C)c1nnc2n1CCN(C(=O)COc1ccc(Cl)cc1)C2` gave an RP-LC retention time of 692 s.

Molecule `Cc1nc2cccnc2n1CCN1CCN(C(=O)Nc2ccc(F)cc2)CC1` yielded an RP-LC retention time of 584 s.

`Cc1ccc(-n2c(N3CCCC(C(=O)NCc4ccccc4Cl)C3)nc3ccsc3c2=O)cc1` (stereo not given) showed an RP-LC retention time of 946 s.

Molecule `CCOC(=O)COc1cc(-c2ccc(F)cc2)nc2ccc(NC(=O)c3ccco3)cc12` had an RP-LC retention time of 798 s.

Molecule `CC(NC(=O)c1cccc2[nH]ccc12)C(=O)N1CCCc2ccccc21` (stereo not given) registered an RP-LC retention time of 822 s.

Take `CC(C)OCCCNC(=O)CCC(=O)N1CC2CCCN2c2ccccc21` (stereo not given): the RP-LC retention time came to 822 s.

Consider `CC(C)Oc1ccc(-c2noc(Cn3ncn4nc(-c5cccs5)cc4c3=O)n2)cc1`, for which the RP-LC retention time is 1150 s.

For `Cc1ccc2nc(CN3CCN(C(=O)NCCc4ccccc4)CC3)oc2c1`, the RP-LC retention time came to 677 s.

Consider `CCOC(=O)c1ccccc1NC(=O)c1c2c(cn(-c3ccccc3)c1=O)C(=O)CC(C)(C)C2`, for which the RP-LC retention time was 1120 s.

`CCCc1noc(-c2ccc3nnc(CC(=O)Nc4ccccc4F)n3c2)n1` showed an RP-LC retention time of 872 s.
